Reference: US4983740A, “Process for 1,4-dihydropyridine compounds” (Adir et Compagnie, priority 1986, dated 1991)
Where a name gives a salt, the structure may show the parent alone.

Tests used:
rat aorta = test: In vitro activity in rat aorta stimulated by potassium ions; format: cell-based, rat (male Wistar); settings: 1 h; rat aorta rings, KCl 80 mM stimulation, cumulative doses at 60 minutes intervals
Method: Determination of the Vitro Activity in Rat Aorta Stimulated by Potassium Ions
This trial was carried out using isolated organs removed from male Wistar rats weighing 300 to 400 g, kept under a water diet 18 hours before sacrificing.
After quickly sacrificing the animal, the aorta (at the level of the arch of the aorta) is removed and dissected into 2 mm-long rings; the endothelium is removed mechanically. After an equilibration period of 1 hour in a physiological solution consisting of (mM): NaCl 112, KCl 5, KH2 PO4 1, MgSO4 1.2, CaCl2 2.5, NaHCO3 25 and glucose 11.5, the preparations are stimulated with a potassium-rich solution. The latter consists of (mM):NaCl 37, KCl 80, KH2 PO4 1, MgSO4 1.2, CaCl2 2.5, NaHCO3 25 and glucose 11.5. This solution has a pH of 7.4 at 37° C.
After 15 minutes of stabilization, the compounds to be tested are then added (sample volume 0.2 ml) at cumulative doses at 60 minutes intervals. From the relaxation values obtained, it is possible to construct a doseresponse curve, leading to the calculation of an IC50 value (expressed in M).

[1] = test system: conscious dogs with renal hypertension; test: Study in conscious dogs with renal hypertension (oral, mean arterial pressure); format: in vivo, dog (Mongol); settings: digestive route
Text: Study in Conscious Dogs with Renal Hypertension
Mongol dogs weighing 20 to 25 kg are used. A Silastic® catheter, inserted under anesthesia at the level of the abdominal aorta, left in position permanently, enables the arterial pressure to be determined subsequently in the conscious animal.
Arterial hypertension is induced by a second operation, under anesthesia, consisting in constricting the left renal artery with a clip, decreasing the flow rate therein by approximately 70%, the left kidney is also covered with a latex capsule in order to restrict circulatory compensations; the contralateral kidney is left in position.
The systolic, diastolic and mean arterial pressures are determined with a Statham® P23 pressure sensor attached to the Silastic® catheter and connected to a Gould® "pressure-processor". The compounds are tested in animals which became hypertensive in the conscious state at least one week after the second operation. The arterial pressure is continuously recorded up to 7 hours after the treatment and then at 24 hours.
The compounds to be tested are administered by the digestive route through gastric tubing, in the form of a solution which may be aqueous, aqueous/alcoholic and the like, depending on the solubility of the products.
The doses administered are expressed in mg base per body weight kg.

[2] = test system: conscious spontaneous hypertensive rats (SHR); test: Short-term studies in conscious spontaneous hypertensive rats (oral, systolic arterial pressure); format: in vivo, rat (SHR); settings: 3 mg/kg
Method: Short-term Studies in Conscious Spontaneous Hypertensive Rats (SHR)
Male spontaneous hypertensive rats weighing 270 to 320 g, aged 16 to 24 weeks, are anesthetized with ether. A polyethylene catheter is introduced into the femoral artery and moved forward to the level of the tail. The pressure in the femoral artery is recorded with a Statham® P23 sensor, on a Gould® 2400 recorder. The animals are treated at least one hour after the operation. The compounds are administered orally, in the dissolved form. The doses administered are expressed in mg/kg of base. The compounds of the invention were compared with amlodipine and with another 1,4-dihydropyridine derivative reference compound, nifedipine.

[3] = test system: conscious spontaneous hypertensive rats (SHR); test: Long-term studies in conscious spontaneous hypertensive rats (oral, single daily dose, systolic arterial pressure); format: in vivo, rat (SHR); settings: 1 mg/kg/d
Method: Long-term Studies in Conscious Spontaneous Hypertensive rats (SHR) Male rats weighing 280 to 300 g, aged 16 weeks, are used in this study. The systolic arterial pressure is determined with a Rhema multichannel 8,000® apparatus, according to the indirect method, at the tail of the animal. The compounds to be tested are administered orally, in a single daily dose. Determinations of arterial pressure are carried out each day just before the treatment. Amlodipine was also studied under the same conditions.

SMILES	IC50 (rat aorta) [nM]	Systolic arterial pressure after treatment, Δ mm Hg, 4 h [2] [mm Hg]	Systolic arterial pressure after treatment, Δ mm Hg, 6 h [2] [mm Hg]	further results
CCOC(=O)C1=C(COCCOCCN(C)Cc2ccccc2)NC(C)=C(C(=O)OC)C1c1ccccc1Cl (racemic) [EXAMPLE 7, (4R,S)-2-[{2-[2-(N-Methyl-N-benzylamino)ethoxy]ethoxy}-methyl]-4-(2-chlorophenyl)-3-ethoxycarbonyl-5-methoxycarbonyl-6-methyl-1,4-dihydropyridine tartrate]	4	-22	-16	Mean arterial pressure after treatment, Δ mm Hg, 4 h ([1]; 0.5 mg/kg): -7 mm Hg; Mean arterial pressure after treatment, Δ mm Hg, 7 h ([1]; 0.5 mg/kg): -3 mm Hg; Mean arterial pressure after treatment, Δ mm Hg, 24 h ([1]; 0.5 mg/kg): 0 mm Hg; Systolic arterial pressure after treatment, Δ mm Hg, 24 h [2]: -8 mm Hg
CCOC(=O)C1=C(COCCOCCN)NC(C)=C(C(=O)OC)C1c1cccc2c1OCO2 (racemic) [EXAMPLE 2, (4R,S)-2-{[2-(2-Aminoethoxy)ethoxy]methyl}-3-ethoxycarbonyl-5-methoxycarbonyl-6-methyl-4-(2,3-methylenedioxyphenyl)-1,4-dihydropyridine]	30	-13	-16	–
C=CCN(CC=C)CCOCCOCC1=C(C(=O)OCC)C(c2ccccc2Cl)C(C(=O)OC)=C(C)N1 (racemic) [EXAMPLE 8, (4R,S)-4-(2-Chlorophenyl)-2-[{2-[2-(N,N-diallylamino)ethoxy]ethoxy}methyl]-3-ethoxycarbonyl-5-methoxycarbonyl-6-methyl-1,4-dihydropyridine hemifumarate]	6.5	-21	-19	–
CCCNCCOCCOCC1=C(C(=O)OCC)C(c2c(F)c(F)c(F)c(F)c2F)C(C(=O)OCC)=C(C)N1 (racemic) [EXAMPLE 16, (4R,S)-3,5-Diethoxycarbonyl-6-methyl-4-pentafluorophenyl-2-[{2-[2-(N-propylamino)ethoxy]ethoxy}methyl]-1,4-dihydropyridine oxalate]	61	–	–	–
CCOC(=O)C1=C(COCCN)NC(C)=C(C(=O)OC)C1c1ccccc1Cl (stereo not drawn) [AMLODIPINE, amlodipine, reference compound]	–	-47	-46	Mean arterial pressure after treatment, Δ mm Hg, 4 h ([1]; 0.5 mg/kg): -28 mm Hg; Mean arterial pressure after treatment, Δ mm Hg, 7 h ([1]; 0.5 mg/kg): -20 mm Hg; Mean arterial pressure after treatment, Δ mm Hg, 24 h ([1]; 0.5 mg/kg): -10 mm Hg; Mean arterial pressure after treatment, Δ mm Hg, 4 h ([1]; 1.0 mg/kg): -45 mm Hg; Mean arterial pressure after treatment, Δ mm Hg, 7 h ([1]; 1.0 mg/kg): -39 mm Hg; Mean arterial pressure after treatment, Δ mm Hg, 24 h ([1]; 1.0 mg/kg): -29 mm Hg; Systolic arterial pressure after treatment, Δ mm Hg, 24 h [2]: -13 mm Hg; Systolic arterial pressure Δ(mm Hg) 24 h after the last administration of the products, D1 ([3]; day 1): -9 mm Hg; Systolic arterial pressure Δ(mm Hg) 24 h after the last administration of the products, D2 ([3]; day 2): -8 mm Hg; Systolic arterial pressure Δ(mm Hg) 24 h after the last administration of the products, D3 ([3]; day 3): -14 mm Hg; Systolic arterial pressure Δ(mm Hg) 24 h after the last administration of the products, D4 ([3]; day 4): -14 mm Hg; Systolic arterial pressure Δ(mm Hg) 24 h after the last administration of the products, D7 ([3]; day 7): -9 mm Hg
CCCNCCOCCOCC1=C(C(=O)OCC)C(c2c(F)c(F)c(F)c(F)c2F)C(C(=O)OC)=C(C)N1 (racemic) [EXAMPLE 34, (4R,S)-3-Ethoxycarbonyl-5-methoxycarbonyl-6-methyl-4-pentafluorophenyl-2-[{2-[2-(N-propylamino)ethoxy]ethoxy}-methyl]-1,4-dihydropyridine fumarate]	1.1	–	–	–
COC(=O)C1=C(C)NC(CCCCCCCN)=C(C(=O)OCC(C2CC2)C2CC2)C1c1ccccc1Cl (racemic) [EXAMPLE 13, (4R,S)-2-(7-Aminoheptyl)-4-(2-chlorophenyl)-3-(2,2-dicyclopropylethoxycarbonyl)-5-methoxycarbonyl-6-methyl-1,4-dihydropyridine fumerate]	300	–	–	–
CCOC(=O)C1=C(COCCOCCN)NC(C)=C(C(=O)OC)C1c1cccc(SC)c1OC (racemic) [EXAMPLE 22]	20	–	–	–
CCOC(=O)C1=C(COCCOCCN)NC(C)=C(C(=O)OC)C1c1ccccc1C(F)(F)F (racemic) [EXAMPLE 17, (4R,S)-2-{[2-(2-Aminoethoxy)ethoxy]methyl}-3-ethoxycarbonyl-5-methoxycarbonyl-6-methyl-4-(2-trifluoromethylphenyl)-1,4-dihydropyridine fumarate]	7.6	–	–	–
CCOC(=O)C1=C(COCCOCC[N+](C)(C)Cc2ccccc2)NC(C)=C(C(=O)OC)C1c1cccc(Cl)c1Cl (racemic) [EXAMPLE 11, N-Benzyl-7-[(4R,S)-3-ethoxycarbonyl-4-(2,3-dichlorophenyl)-5-methoxycarbonyl-6-methyl-2-(1,4-dihydropyridyl)]-N,N-dimethyl-3,6-dioxaheptanammonium iodide]	250	–	–	–
COC(=O)C1=C(C)NC(C)=C(C(=O)OC)C1c1ccccc1[N+](=O)[O-] [NIFEDIPINE, nifedipine, reference compound]	–	-19	-25	–
CCOC(=O)C1=C(CCCCCCCN)NC(C)=C(C(=O)OC)C1c1ccccc1Cl (racemic) [EXAMPLE 12, (4R,S)-2-(7-Aminoheptyl)-4-(2-chlorophenyl)-3-ethoxycarbonyl-5-methoxycarbonyl-6-methyl-1,4-dihydropyridine fumarate]	25	-23	-30	Mean arterial pressure after treatment, Δ mm Hg, 4 h ([1]; 2.0 mg/kg): -22 mm Hg; Mean arterial pressure after treatment, Δ mm Hg, 7 h ([1]; 2.0 mg/kg): -32 mm Hg; Systolic arterial pressure after treatment, Δ mm Hg, 24 h [2]: -21 mm Hg
CCOC(=O)C1=C(COCCOCCN)NC(C)=C(C(=O)OC)C1c1ccccc1Cl (racemic) [EXAMPLE 5, (4R,S)-2-{[2-(2-Aminoethoxy)ethoxy]methyl}-4-(2-chlorophenyl)-3-ethoxycarbonyl-5-methoxycarbonyl-6-methyl-1,4-dihydropyridine fumarate]	65	-49	-49	Mean arterial pressure after treatment, Δ mm Hg, 4 h ([1]; 0.5 mg/kg): -32 mm Hg; Mean arterial pressure after treatment, Δ mm Hg, 7 h ([1]; 0.5 mg/kg): -25 mm Hg; Mean arterial pressure after treatment, Δ mm Hg, 4 h ([1]; 1.0 mg/kg): -48 mm Hg; Mean arterial pressure after treatment, Δ mm Hg, 7 h ([1]; 1.0 mg/kg): -39 mm Hg; Mean arterial pressure after treatment, Δ mm Hg, 24 h ([1]; 1.0 mg/kg): -10 mm Hg; Systolic arterial pressure after treatment, Δ mm Hg, 24 h [2]: -22 mm Hg
COC(=O)C1=C(C)NC(COCCOCCN)=C(C(=O)OC)C1c1c(F)c(F)c(F)c(F)c1F (racemic) [EXAMPLE 19, (4R,S)-2-{[2-(2-Aminoethoxy)ethoxy]methyl}-3,5-dimethoxycarbonyl-6-methyl-4-pentafluorophenyldihydropyridine tartrate]	4.9	–	–	–
